# Measured values taken from ChEMBL document CHEMBL3885861, “Open TG-GATES”.
# Species: Rattus norvegicus
# Test: Open TG-GATES - Regimen: Daily Repeat
# Format: toxicity, organism-based, Sprague-Dawley
# Parameters: regimen Daily Repeat, gender Male, age 6 weeks
# Conditions: in vivo, po, 100 mg/kg, route gavage, dose level High; for APTT / Bas / Eos / Fbg / Hb / Ht / Lym / MCH / MCHC / MCV / Mono / Neu / PT / Plat / RBC / Ret / WBC: tissue Blood; for KIDNEY_L / KIDNEY_R / KIDNEY_TOTAL: tissue Kidney; for LIVER: tissue Liver; for A/G / ALP / ALT / AST / BUN / CRE / Ca / Cl / DBIL / GLC / IP / K / LDH / Na / PL / RALB / TBIL / TC / TG / TP / gamma-GTP: tissue Plasma
structure (smiles),measurement,setting,value
Nc1ccc(Cc2ccc(N)cc2)cc1,TERMINAL_BW,"72 h, time 3 day",208.1 g
same,APTT,"72 h, time 3 day",17.9 s
same,Bas,"72 h, time 3 day",0.6%
same,Eos,"72 h, time 3 day",1%
same,Fbg,"72 h, time 3 day",405.8 mg/dL
same,Hb,"72 h, time 3 day",12.8 g/dL
same,Ht,"72 h, time 3 day",35.9%
same,Lym,"72 h, time 3 day",66.8%
same,MCH,"72 h, time 3 day",19.9 pg
same,MCHC,"72 h, time 3 day",35.8%
same,MCV,"72 h, time 3 day",55.5 fL
same,Mono,"72 h, time 3 day",6.2%
same,Neu,"72 h, time 3 day",25.2%
same,PT,"72 h, time 3 day",12 s
same,Plat,"72 h, time 3 day",166 x10_4/uL
same,RBC,"72 h, time 3 day",646 x10_4/ul
same,Ret,"72 h, time 3 day",4.3%
same,WBC,"72 h, time 3 day",223.6 x10_2/uL
same,KIDNEY_L,"72 h, time 3 day",1 g
same,KIDNEY_R,"72 h, time 3 day",1 g
same,KIDNEY_TOTAL,"72 h, time 3 day",2 g
same,LIVER,"72 h, time 3 day",11.6 g
same,A/G,"72 h, time 3 day",0.6
same,ALP,"72 h, time 3 day",3437 IU/L
same,ALT,"72 h, time 3 day",290.2 IU/L
same,AST,"72 h, time 3 day",509.2 IU/L
same,BUN,"72 h, time 3 day",12.6 mg/dL
same,CRE,"72 h, time 3 day",0.2 mg/dL
same,Ca,"72 h, time 3 day",11.3 mg/dL
same,Cl,"72 h, time 3 day",103.8 meq/L
same,DBIL,"72 h, time 3 day",1.3 mg/dL
same,GLC,"72 h, time 3 day",145.2 mg/dL
same,IP,"72 h, time 3 day",7.3 mg/dL
same,K,"72 h, time 3 day",4.7 meq/L
same,LDH,"72 h, time 3 day",160.6 IU/L
same,Na,"72 h, time 3 day",141.6 meq/L
same,PL,"72 h, time 3 day",325.8 mg/dL
same,RALB,"72 h, time 3 day",2.3 g/dL
same,TBIL,"72 h, time 3 day",2.7 mg/dL
same,TC,"72 h, time 3 day",221 mg/dL
same,TG,"72 h, time 3 day",69.4 mg/dL
same,TP,"72 h, time 3 day",5.9 g/dL
same,gamma-GTP,"72 h, time 3 day",7.8 IU/L
same,TERMINAL_BW,"[…], time 7 day",235.7 g
same,TERMINAL_BW,"[…], time 14 day",264.2 g
same,TERMINAL_BW,"[…], time 28 day",273.7 g
same,APTT,"[…], time 7 day",17.6 s
same,Bas,"[…], time 7 day",0.6%
same,Eos,"[…], time 7 day",0.6%
same,Fbg,"[…], time 7 day",273.8 mg/dL
same,Hb,"[…], time 7 day",12.4 g/dL
same,Ht,"[…], time 7 day",34.8%
same,Lym,"[…], time 7 day",66.6%
same,MCH,"[…], time 7 day",19.7 pg
same,MCHC,"[…], time 7 day",35.6%
same,MCV,"[…], time 7 day",55.2 fL
same,Mono,"[…], time 7 day",5.8%
same,Neu,"[…], time 7 day",25.8%
same,PT,"[…], time 7 day",12.5 s
same,Plat,"[…], time 7 day",193.4 x10_4/uL
same,RBC,"[…], time 7 day",631 x10_4/ul
same,Ret,"[…], time 7 day",7.9%
same,WBC,"[…], time 7 day",238.1 x10_2/uL
same,APTT,"[…], time 14 day",21.7 s
same,Bas,"[…], time 14 day",1%
same,Eos,"[…], time 14 day",1%
same,Fbg,"[…], time 14 day",292.2 mg/dL
same,Hb,"[…], time 14 day",11.9 g/dL
same,Ht,"[…], time 14 day",33.6%
same,Lym,"[…], time 14 day",69.4%
same,MCH,"[…], time 14 day",19.8 pg
same,MCHC,"[…], time 14 day",35.4%
same,MCV,"[…], time 14 day",56 fL
same,Mono,"[…], time 14 day",5.6%
same,Neu,"[…], time 14 day",22.8%
same,PT,"[…], time 14 day",13 s
same,Plat,"[…], time 14 day",166.6 x10_4/uL
same,RBC,"[…], time 14 day",601.8 x10_4/ul
same,Ret,"[…], time 14 day",8.1%
same,WBC,"[…], time 14 day",308 x10_2/uL
same,APTT,"[…], time 28 day",37.8 s
same,Bas,"[…], time 28 day",0.8%
same,Eos,"[…], time 28 day",1%
same,Fbg,"[…], time 28 day",275.8 mg/dL
same,Hb,"[…], time 28 day",12.1 g/dL
same,Ht,"[…], time 28 day",33.5%
same,Lym,"[…], time 28 day",67.2%
same,MCH,"[…], time 28 day",18.4 pg
same,MCHC,"[…], time 28 day",36.1%
same,MCV,"[…], time 28 day",51.2 fL
same,Mono,"[…], time 28 day",4%
same,Neu,"[…], time 28 day",26.6%
same,PT,"[…], time 28 day",15.2 s
same,Plat,"[…], time 28 day",121.3 x10_4/uL
same,RBC,"[…], time 28 day",654 x10_4/ul
same,Ret,"[…], time 28 day",5.8%
same,WBC,"[…], time 28 day",304.5 x10_2/uL
same,KIDNEY_L,"[…], time 7 day",1 g
same,KIDNEY_R,"[…], time 7 day",1 g
same,KIDNEY_TOTAL,"[…], time 7 day",2 g
same,KIDNEY_L,"[…], time 14 day",1 g
same,KIDNEY_R,"[…], time 14 day",1.1 g
same,KIDNEY_TOTAL,"[…], time 14 day",2.1 g
same,KIDNEY_L,"[…], time 28 day",1.1 g
same,KIDNEY_R,"[…], time 28 day",1 g
same,KIDNEY_TOTAL,"[…], time 28 day",2.1 g
same,LIVER,"[…], time 7 day",13.1 g
same,LIVER,"[…], time 14 day",16.2 g
same,LIVER,"[…], time 28 day",14.1 g
same,A/G,"[…], time 7 day",0.6
same,ALP,"[…], time 7 day",3310.8 IU/L
same,ALT,"[…], time 7 day",96.2 IU/L
same,AST,"[…], time 7 day",198.8 IU/L
same,BUN,"[…], time 7 day",13 mg/dL
same,CRE,"[…], time 7 day",0.2 mg/dL
same,Ca,"[…], time 7 day",11.6 mg/dL
same,Cl,"[…], time 7 day",103.8 meq/L
same,DBIL,"[…], time 7 day",0.9 mg/dL
same,GLC,"[…], time 7 day",148.4 mg/dL
same,IP,"[…], time 7 day",6.9 mg/dL
same,K,"[…], time 7 day",4.4 meq/L
same,LDH,"[…], time 7 day",95 IU/L
same,Na,"[…], time 7 day",143.6 meq/L
same,PL,"[…], time 7 day",213.6 mg/dL
same,RALB,"[…], time 7 day",2.4 g/dL
same,TBIL,"[…], time 7 day",1.7 mg/dL
same,TC,"[…], time 7 day",135 mg/dL
same,TG,"[…], time 7 day",48.6 mg/dL
same,TP,"[…], time 7 day",6.1 g/dL
same,gamma-GTP,"[…], time 7 day",6 IU/L
same,A/G,"[…], time 14 day",0.5
same,ALP,"[…], time 14 day",2423.6 IU/L
same,ALT,"[…], time 14 day",91.4 IU/L
same,AST,"[…], time 14 day",260 IU/L
same,BUN,"[…], time 14 day",17.6 mg/dL
same,CRE,"[…], time 14 day",0.2 mg/dL
same,Ca,"[…], time 14 day",11.4 mg/dL
same,Cl,"[…], time 14 day",103.6 meq/L
same,DBIL,"[…], time 14 day",0.7 mg/dL
same,GLC,"[…], time 14 day",143.6 mg/dL
same,IP,"[…], time 14 day",6.4 mg/dL
same,K,"[…], time 14 day",4.1 meq/L
same,LDH,"[…], time 14 day",143.8 IU/L
same,Na,"[…], time 14 day",143.6 meq/L
same,PL,"[…], time 14 day",226.4 mg/dL
same,RALB,"[…], time 14 day",2.5 g/dL
same,TBIL,"[…], time 14 day",1.6 mg/dL
same,TC,"[…], time 14 day",165.4 mg/dL
same,TG,"[…], time 14 day",49.6 mg/dL
same,TP,"[…], time 14 day",7 g/dL
same,gamma-GTP,"[…], time 14 day",8 IU/L
same,A/G,"[…], time 28 day",0.5
same,ALP,"[…], time 28 day",3009.6 IU/L
same,ALT,"[…], time 28 day",116.6 IU/L
same,AST,"[…], time 28 day",300 IU/L
same,BUN,"[…], time 28 day",19.2 mg/dL
same,CRE,"[…], time 28 day",0.3 mg/dL
same,Ca,"[…], time 28 day",11.5 mg/dL
same,Cl,"[…], time 28 day",102 meq/L
same,DBIL,"[…], time 28 day",0.6 mg/dL
same,GLC,"[…], time 28 day",144 mg/dL
same,IP,"[…], time 28 day",5.6 mg/dL
same,K,"[…], time 28 day",4 meq/L
same,LDH,"[…], time 28 day",108.6 IU/L
same,Na,"[…], time 28 day",146.2 meq/L
same,PL,"[…], time 28 day",158.4 mg/dL
same,RALB,"[…], time 28 day",2.5 g/dL
same,TBIL,"[…], time 28 day",1.7 mg/dL
same,TC,"[…], time 28 day",113.4 mg/dL
same,TG,"[…], time 28 day",33.2 mg/dL
same,TP,"[…], time 28 day",7.6 g/dL
same,gamma-GTP,"[…], time 28 day",7.2 IU/L
